# From patent publication US8192962B2, “Processes for detecting toxic substances” (Daikin Industries, Ltd., priority 2001, dated 2012)
# Test system: Genes belonging to other category
# Assay: DNA chip mRNA expression in yeast, genes belonging to other category (Table 9)
# Assay type: cell-based, Saccharomyces cerevisiae S288C
# Procedure: Yeast (Saccharomyces cerevisiae S288C (α SUC2mal mel gap2 CUP1)) were incubated at 25° C. on YPD medium (yeast extract 1%, polypepton 2%, glucose 2%). One of toxic chemical substances was added to the cells at logarithmic growth phase, and the cells were further incubated for two hours. Cells were cultured without any chemical substance in the same condition, and were used as control. Concentrations of the chemical substances were defined to inhibit the growth of the yeast but not lead to death.
# After completion of the incubation, the culture was centrifuged to collect the cells. To the cells, sodium acetate buffer (50 mM sodium acetate, 10 mM EDTA, 1% SDS) was added, and the mixture was shaken at 65° C. for five minutes, followed by returning to room temperature, and obtaining the supernatant, of which the procedures were repeated two times. To the supernatant, ½ amount of a solution of phenol/chloroform was added, and the mixture was centrifuged to give a supernatant, which was added with an equal amount of chloroform, and the mixture was centrifuged to give a supernatant. To the supernatant, an equal amount of isopropanol containing 0.3 M sodium acetate was added, and the mixture was allowed to stand at room temperature for 30 minutes, after which the mixture was centrifuged to give a sediment of the whole RNAs. Seventy % ethanol was added to the sediment, and the mixture was again centrifuged to give a sediment, which was then dried and dissolved in water. mRNA was isolated from the whole RNAs as followings. In view of the fact that a poly A chain is attached to the 3′ terminus of mRNA, a polynucleotide having a poly T structure which was immobilized on the surface of latex beads was used to trap the mRNA, and then the mRNA was washed and eluted with spine column (Oligotex-dT30<Super>mRNA Purification Kit, Takara). Reverse transcription of the mRNA was conducted with a reverse transcriptase (Super Script II Reverse Transcriptase; catalogue No. 18064-014, GibcoBRL) using fluorescence-labeled nucleotides to give cDNAs that were introduced with Cy3-dUTP or Cy5-dUTP during the reverse transcription.
# The labeled cDNAs were dissolved in TE buffer (10mM Tris-HCl/1 mM EDTA, pH8.0), and the solution was dropped on the DNA chip containing the whole genes of yeast (DNA Chip Research Inc. Japan) so that the cDNAs were hybridized on the DNA chip at 65° C. for over 12 hours. The fluoresces intensity of the DNA chip was read with a scanner, and the ratio relative to the fluorescence intensity resulting from the absence of chemical substance was estimated as the following, which is shown in Tables 1 to 9: […]
smiles,measurement,setting,value
"CCCCCCCCCCCCc1ccc(S(=O)(=O)[O-])cc1.[Na+] [(17), sodium dodecylbenzosulfonate]",The level of expressed mRNA in the presence of chemical substance/The level of expressed mRNA in the absence of chemical substance,yeast gene YAR010C,1.5
same,The level of expressed mRNA in the presence of chemical substance/The level of expressed mRNA in the absence of chemical substance,yeast gene YBL005W-A,1.3
same,The level of expressed mRNA in the presence of chemical substance/The level of expressed mRNA in the absence of chemical substance,yeast gene YBL041W,1.3
same,The level of expressed mRNA in the presence of chemical substance/The level of expressed mRNA in the absence of chemical substance,yeast gene YBL043W,2.3
same,The level of expressed mRNA in the presence of chemical substance/The level of expressed mRNA in the absence of chemical substance,yeast gene YBL078C,1.8
same,The level of expressed mRNA in the presence of chemical substance/The level of expressed mRNA in the absence of chemical substance,yeast gene YBR214W,1.1
same,The level of expressed mRNA in the presence of chemical substance/The level of expressed mRNA in the absence of chemical substance,yeast gene YCL020W,0.9
same,The level of expressed mRNA in the presence of chemical substance/The level of expressed mRNA in the absence of chemical substance,yeast gene YCL027W,0.7
same,The level of expressed mRNA in the presence of chemical substance/The level of expressed mRNA in the absence of chemical substance,yeast gene YCR004C,1.4
same,The level of expressed mRNA in the presence of chemical substance/The level of expressed mRNA in the absence of chemical substance,yeast gene YCR071C,1.2
same,The level of expressed mRNA in the presence of chemical substance/The level of expressed mRNA in the absence of chemical substance,yeast gene YCR088W,1.4
same,The level of expressed mRNA in the presence of chemical substance/The level of expressed mRNA in the absence of chemical substance,yeast gene YDL008W,1.5
same,The level of expressed mRNA in the presence of chemical substance/The level of expressed mRNA in the absence of chemical substance,yeast gene YDL238C,1.1
same,The level of expressed mRNA in the presence of chemical substance/The level of expressed mRNA in the absence of chemical substance,yeast gene YDR055W,2.0
same,The level of expressed mRNA in the presence of chemical substance/The level of expressed mRNA in the absence of chemical substance,yeast gene YDR084C,2.0
same,The level of expressed mRNA in the presence of chemical substance/The level of expressed mRNA in the absence of chemical substance,yeast gene YDR085C,1.3
same,The level of expressed mRNA in the presence of chemical substance/The level of expressed mRNA in the absence of chemical substance,yeast gene YDR104C,0.9
same,The level of expressed mRNA in the presence of chemical substance/The level of expressed mRNA in the absence of chemical substance,yeast gene YDR115W,1.2
same,The level of expressed mRNA in the presence of chemical substance/The level of expressed mRNA in the absence of chemical substance,yeast gene YDR259C,1.0
same,The level of expressed mRNA in the presence of chemical substance/The level of expressed mRNA in the absence of chemical substance,yeast gene YDR315C,1.2
same,The level of expressed mRNA in the presence of chemical substance/The level of expressed mRNA in the absence of chemical substance,yeast gene YDR358W,1.9
same,The level of expressed mRNA in the presence of chemical substance/The level of expressed mRNA in the absence of chemical substance,yeast gene YDR388W,1.2
same,The level of expressed mRNA in the presence of chemical substance/The level of expressed mRNA in the absence of chemical substance,yeast gene YDR432W,0.7
same,The level of expressed mRNA in the presence of chemical substance/The level of expressed mRNA in the absence of chemical substance,yeast gene YDR481C,1.2
same,The level of expressed mRNA in the presence of chemical substance/The level of expressed mRNA in the absence of chemical substance,yeast gene YDR510W,1.1
same,The level of expressed mRNA in the presence of chemical substance/The level of expressed mRNA in the absence of chemical substance,yeast gene YEL042W,0.7
same,The level of expressed mRNA in the presence of chemical substance/The level of expressed mRNA in the absence of chemical substance,yeast gene YEL066W,1.0
same,The level of expressed mRNA in the presence of chemical substance/The level of expressed mRNA in the absence of chemical substance,yeast gene YER039C,1.7
same,The level of expressed mRNA in the presence of chemical substance/The level of expressed mRNA in the absence of chemical substance,yeast gene YER107C,1.1
same,The level of expressed mRNA in the presence of chemical substance/The level of expressed mRNA in the absence of chemical substance,yeast gene YER130C,3.0
same,The level of expressed mRNA in the presence of chemical substance/The level of expressed mRNA in the absence of chemical substance,yeast gene YFL022C,0.9
same,The level of expressed mRNA in the presence of chemical substance/The level of expressed mRNA in the absence of chemical substance,yeast gene YFL028C,1.2
same,The level of expressed mRNA in the presence of chemical substance/The level of expressed mRNA in the absence of chemical substance,yeast gene YFL043C,1.5
same,The level of expressed mRNA in the presence of chemical substance/The level of expressed mRNA in the absence of chemical substance,yeast gene YGL158W,0.8
same,The level of expressed mRNA in the presence of chemical substance/The level of expressed mRNA in the absence of chemical substance,yeast gene YGL229C,1.1
same,The level of expressed mRNA in the presence of chemical substance/The level of expressed mRNA in the absence of chemical substance,yeast gene YGR136W,1.3
same,The level of expressed mRNA in the presence of chemical substance/The level of expressed mRNA in the absence of chemical substance,yeast gene YGR189C,2.3
same,The level of expressed mRNA in the presence of chemical substance/The level of expressed mRNA in the absence of chemical substance,yeast gene YGR213C,12.8
same,The level of expressed mRNA in the presence of chemical substance/The level of expressed mRNA in the absence of chemical substance,yeast gene YGR257C,1.1
same,The level of expressed mRNA in the presence of chemical substance/The level of expressed mRNA in the absence of chemical substance,yeast gene YHR004C,1.4
same,The level of expressed mRNA in the presence of chemical substance/The level of expressed mRNA in the absence of chemical substance,yeast gene YHR071W,2.6
same,The level of expressed mRNA in the presence of chemical substance/The level of expressed mRNA in the absence of chemical substance,yeast gene YHR139C,1.4
same,The level of expressed mRNA in the presence of chemical substance/The level of expressed mRNA in the absence of chemical substance,yeast gene YHR142W,1.3
same,The level of expressed mRNA in the presence of chemical substance/The level of expressed mRNA in the absence of chemical substance,yeast gene YIL123W,1.3
same,The level of expressed mRNA in the presence of chemical substance/The level of expressed mRNA in the absence of chemical substance,yeast gene YIL140W,0.7
same,The level of expressed mRNA in the presence of chemical substance/The level of expressed mRNA in the absence of chemical substance,yeast gene YJL073W,1.1
same,The level of expressed mRNA in the presence of chemical substance/The level of expressed mRNA in the absence of chemical substance,yeast gene YJL089W,1.2
same,The level of expressed mRNA in the presence of chemical substance/The level of expressed mRNA in the absence of chemical substance,yeast gene YJL116C,1.2
same,The level of expressed mRNA in the presence of chemical substance/The level of expressed mRNA in the absence of chemical substance,yeast gene YJR004C,0.4
same,The level of expressed mRNA in the presence of chemical substance/The level of expressed mRNA in the absence of chemical substance,yeast gene YJR086W,1.4
